Tests used:
[1] = system: SN12C; assay: Antiproliferative activity against human SN12C cells assessed as cell growth at 10^-4 M after 48 hrs by sulforhodamine B assay; assay type: functional; details: read-out: Activity
[2] = system: MDA-MB-231; assay: Antiproliferative activity against human MDA-MB-231 cells assessed as growth inhibition after 48 hrs by sulforhodamine B assay; assay type: functional; details: MDA-MB-231, 48 h; for CC50: read-out: LC50 (the source's name)
[3] = Antiproliferative activity against human PC3 cells assessed as growth inhibition after 48 hrs by sulforhodamine B assay; assay type: functional; details: PC-3, 48 h
[4] = system: SR; assay: Antiproliferative activity against human SR cells assessed as cell growth at 10^-4 M after 48 hrs by sulforhodamine B assay; assay type: functional; details: read-out: Activity
[5] = Antiproliferative activity against human SF268 cells assessed as cell growth at 10^-8 M after 48 hrs by sulforhodamine B assay; assay type: functional; details: SF-268, 48 h, read-out: Activity
[6] = system: SK-MEL-2; assay: Antiproliferative activity against human SK-MEL-2 cells assessed as cell growth at 10^-7 M after 48 hrs by sulforhodamine B assay; assay type: functional; details: SK-MEL-2, 48 h, read-out: Activity
[7] = Antiproliferative activity against human RPMI8226 cells assessed as cell growth at 10^-7 M after 48 hrs by sulforhodamine B assay; assay type: functional; details: RPMI-8226, 48 h, read-out: Activity
[8] = Antiproliferative activity against human RPMI8226 cells assessed as cell growth at 10^-4 M after 48 hrs by sulforhodamine B assay; assay type: functional; details: RPMI-8226, 48 h, read-out: Activity
[9] = Antiproliferative activity against human HCC2998 cells assessed as growth inhibition after 48 hrs by sulforhodamine B assay; assay type: functional; details: HCC 2998, 48 h; for CC50: read-out: LC50 (the source's name)
[10] = system: 786-0; assay: Antiproliferative activity against human 786-0 cells assessed as growth inhibition after 48 hrs by sulforhodamine B assay; assay type: functional; details: 786-0, 48 h
[11] = Antiproliferative activity against human SF295 cells assessed as cell growth at 10^-6 M after 48 hrs by sulforhodamine B assay; assay type: functional; details: SF-295, 48 h, read-out: Activity
[12] = system: U-251; assay: Antiproliferative activity against human U251 cells assessed as cell growth at 10^-6 M after 48 hrs by sulforhodamine B assay; assay type: functional; details: U-251, 48 h, read-out: Activity
[13] = system: T47D; assay: Antiproliferative activity against human T47D cells assessed as cell growth at 10^-4 M after 48 hrs by sulforhodamine B assay; assay type: functional; details: read-out: Activity
[14] = Antiproliferative activity against human UACC257 cells assessed as cell growth at 10^-8 M after 48 hrs by sulforhodamine B assay; assay type: functional; details: UACC-257, 48 h, read-out: Activity
[15] = biological target: Voltage-gated inwardly rectifying potassium channel KCNH2 (Homo sapiens, UniProt Q12809); assay: Inhibition of human ERG assessed as reduction in channel current by automated patch-clamp electrophysiology assay
[16] = Antiproliferative activity against human RPMI8226 cells assessed as cell growth at 10^-6 M after 48 hrs by sulforhodamine B assay; assay type: functional; details: RPMI-8226, 48 h, read-out: Activity
[17] = Antiproliferative activity against human BT549 cells assessed as cell growth at 10^-4 M after 48 hrs by sulforhodamine B assay; assay type: functional; details: BT-549, 48 h, read-out: Activity
[18] = Antiproliferative activity against human IGROV1 cells assessed as growth inhibition after 48 hrs by sulforhodamine B assay; assay type: functional; details: IGROV-1, 48 h; for CC50: read-out: LC50 (the source's name)
[19] = system: SK-MEL-2; assay: Antiproliferative activity against human SK-MEL-2 cells assessed as cell growth at 10^-8 M after 48 hrs by sulforhodamine B assay; assay type: functional; details: SK-MEL-2, 48 h, read-out: Activity
[20] = system: MDA-MB-435; assay: Antiproliferative activity against human MDA-MB-435 cells assessed as cell growth at 10^-4 M after 48 hrs by sulforhodamine B assay; assay type: functional; details: MDA-MB-435, 48 h, read-out: Activity
[21] = system: NCI-H522; assay: Antiproliferative activity against human NCI-H522 cells assessed as growth inhibition after 48 hrs by sulforhodamine B assay; assay type: functional; details: NCI-H522, 48 h
[22] = Antiproliferative activity against human Caki1 cells assessed as growth inhibition after 48 hrs by sulforhodamine B assay; assay type: functional; details: CAKI-1, 48 h; for CC50: read-out: LC50 (the source's name)
[23] = Antiproliferative activity against human HOP92 cells assessed as cell growth at 10^-8 M after 48 hrs by sulforhodamine B assay; assay type: functional; details: HOP-92, 48 h, read-out: Activity
[24] = Antiproliferative activity against human SF295 cells assessed as cell growth at 10^-4 M after 48 hrs by sulforhodamine B assay; assay type: functional; details: SF-295, 48 h, read-out: Activity
[25] = system: CCRF-CEM; assay: Antiproliferative activity against human CCRF-CEM cells assessed as cell growth at 10^-8 M after 48 hrs by sulforhodamine B assay; assay type: functional; details: read-out: Activity
[26] = system: ACHN; assay: Antiproliferative activity against human ACHN cells assessed as cell growth at 10^-8 M after 48 hrs by sulforhodamine B assay; assay type: functional; details: read-out: Activity
[27] = system: MCF7; assay: Antiproliferative activity against human MCF7 cells assessed as cell growth at 10^-6 M after 48 hrs by sulforhodamine B assay; assay type: functional; details: MCF7, 48 h, read-out: Activity
[28] = Antiproliferative activity against human OVCAR8 cells assessed as cell growth at 10^-7 M after 48 hrs by sulforhodamine B assay; assay type: functional; details: OVCAR-8, 48 h, read-out: Activity
[29] = system: EKVX; assay: Antiproliferative activity against human EKVX cells assessed as cell growth at 10^-7 M after 48 hrs by sulforhodamine B assay; assay type: functional; details: read-out: Activity
[30] = Antiproliferative activity against human Hs 578T cells assessed as cell growth at 10^-6 M after 48 hrs by sulforhodamine B assay; assay type: functional; details: read-out: Activity
[31] = Antiproliferative activity against human HCT15 cells assessed as cell growth at 10^-6 M after 48 hrs by sulforhodamine B assay; assay type: functional; details: HCT-15, 48 h, read-out: Activity
[32] = Antiproliferative activity against human OVCAR5 cells assessed as growth inhibition after 48 hrs by sulforhodamine B assay; assay type: functional; details: OVCAR-5, 48 h; for CC50: read-out: LC50 (the source's name)
[33] = Antiproliferative activity against human SNB19 cells assessed as cell growth at 10^-8 M after 48 hrs by sulforhodamine B assay; assay type: functional; details: SNB-19, 48 h, read-out: Activity
[34] = Antiproliferative activity against human UACC257 cells assessed as growth inhibition after 48 hrs by sulforhodamine B assay; assay type: functional; details: UACC-257, 48 h; for CC50: read-out: LC50 (the source's name)
[35] = system: M14; assay: Antiproliferative activity against human M14 cells assessed as cell growth at 10^-4 M after 48 hrs by sulforhodamine B assay; assay type: functional; details: M14, 48 h, read-out: Activity
[36] = system: SK-MEL-28; assay: Antiproliferative activity against human SK-MEL-28 cells assessed as growth inhibition after 48 hrs by sulforhodamine B assay; assay type: functional; details: SK-MEL-28, 48 h; for CC50: read-out: LC50 (the source's name)

Voltage-gated inwardly rectifying potassium channel KCNH2, sequence (Q12809 whole entry): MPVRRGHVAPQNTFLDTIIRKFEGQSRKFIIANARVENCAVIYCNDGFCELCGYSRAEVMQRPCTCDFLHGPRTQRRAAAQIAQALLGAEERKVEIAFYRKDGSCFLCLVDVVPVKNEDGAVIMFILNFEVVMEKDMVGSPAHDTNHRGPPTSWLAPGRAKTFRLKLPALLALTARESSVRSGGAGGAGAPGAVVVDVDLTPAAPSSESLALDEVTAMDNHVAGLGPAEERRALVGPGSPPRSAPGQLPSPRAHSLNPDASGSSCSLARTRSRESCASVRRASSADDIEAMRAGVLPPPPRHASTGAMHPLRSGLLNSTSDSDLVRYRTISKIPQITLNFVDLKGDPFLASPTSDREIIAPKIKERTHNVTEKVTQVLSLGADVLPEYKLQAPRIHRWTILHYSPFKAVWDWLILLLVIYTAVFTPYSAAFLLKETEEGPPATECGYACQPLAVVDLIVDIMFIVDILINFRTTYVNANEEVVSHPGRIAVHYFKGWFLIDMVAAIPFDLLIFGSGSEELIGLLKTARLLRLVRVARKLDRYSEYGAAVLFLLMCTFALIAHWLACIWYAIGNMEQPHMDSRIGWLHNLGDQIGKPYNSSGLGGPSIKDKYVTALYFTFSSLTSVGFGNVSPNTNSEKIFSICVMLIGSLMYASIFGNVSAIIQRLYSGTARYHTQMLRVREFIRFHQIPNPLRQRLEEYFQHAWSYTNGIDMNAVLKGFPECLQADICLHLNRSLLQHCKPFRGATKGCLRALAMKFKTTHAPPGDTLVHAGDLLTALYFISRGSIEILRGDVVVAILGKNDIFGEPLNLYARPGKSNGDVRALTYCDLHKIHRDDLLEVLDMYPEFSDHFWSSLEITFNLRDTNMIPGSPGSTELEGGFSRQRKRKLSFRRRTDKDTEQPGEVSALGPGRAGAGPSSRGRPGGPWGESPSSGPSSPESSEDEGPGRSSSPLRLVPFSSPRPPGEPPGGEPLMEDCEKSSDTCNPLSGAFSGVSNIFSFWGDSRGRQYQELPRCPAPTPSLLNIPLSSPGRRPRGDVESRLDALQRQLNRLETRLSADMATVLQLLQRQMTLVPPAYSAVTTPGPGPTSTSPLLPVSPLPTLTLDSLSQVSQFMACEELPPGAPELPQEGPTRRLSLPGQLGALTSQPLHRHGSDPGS

SMILES: CNC(=O)c1cc(Oc2ccc3nc(NC(=O)Nc4ccc(Cl)c(C(F)(F)F)c4)sc3c2)ccn1
- growth at 100 µM [1]: 12%
- GI50 [2]: 1.43 µM
- TGI [2]: 4.29 µM
- CC50 [2]: 59.2 µM
- GI50 [3]: 1.42 µM
- growth at 100 µM [4]: -11%
- growth at 0.01 µM [5]: 107%
- growth at 0.1 µM [6]: 99%
- growth at 0.1 µM [7]: 101%
- growth at 100 µM [8]: 46%
- TGI [9]: > 100 µM
- CC50 [9]: > 100 µM
- GI50 [10]: 1.79 µM
- LC50 [10]: 6.48 µM
- TGI [10]: 3.4 µM
- growth at 1 µM [11]: 90%
- growth at 1 µM [12]: 89%
- growth at 100 µM [13]: -16%
- growth at 0.01 µM [14]: 102%
- IC50 [15]: > 100 µM
- growth at 1 µM [16]: 82%
- growth at 100 µM [17]: -6%
- GI50 [18]: 2.02 µM
- TGI [18]: 5.12 µM
- CC50 [18]: > 100 µM
- growth at 0.01 µM [19]: 103%
- growth at 100 µM [20]: 40%
- GI50 [21]: 2.54 µM
- LC50 (concentration killing 50% of cells) [21]: > 100 µM
- TGI [21]: > 100 µM
- GI50 [22]: 2.54 µM
- CC50 [22]: > 100 µM
- growth at 0.01 µM [23]: 85%
- growth at 100 µM [24]: -82%
- growth at 0.01 µM [25]: 105%
- growth at 0.01 µM [26]: 97%
- growth at 1 µM [27]: 66%
- growth at 0.1 µM [28]: 108%
- growth at 0.1 µM [29]: 94%
- growth at 1 µM [30]: 65%
- growth at 1 µM [31]: 74%
- GI50 [32]: 2.46 µM
- TGI [32]: 7.55 µM
- CC50 [32]: > 100 µM
- growth at 0.01 µM [33]: 101%
- GI50 [34]: 3.37 µM
- TGI [34]: > 100 µM
- CC50 [34]: > 100 µM
- growth at 100 µM [35]: 15%
- GI50 [36]: 1.56 µM

SMILES: CNC(=O)c1cc(Oc2ccc(NC(=O)Nc3ccc(Cl)c(C(F)(F)F)c3)cc2)ccn1 [SORAFENIB]
- GI50 [2]: 1.26 µM
- TGI [2]: 3.98 µM
- CC50 [2]: 20 µM
- GI50 [3]: 2 µM
- TGI [3]: 7.94 µM
- GI50 [9]: 3.16 µM
- TGI [9]: 3.16 µM
- CC50 [9]: 6.31 µM
- GI50 [10]: 3.16 µM
- TGI [10]: 10 µM
- GI50 [18]: 2.51 µM
- TGI [18]: 15.9 µM
- CC50 [18]: 79.4 µM
- GI50 [21]: 2 µM
- TGI [21]: 6.31 µM
- GI50 [22]: 3.16 µM
- TGI [22]: 3.98 µM
- CC50 [22]: 10 µM
- GI50 [32]: 3.16 µM
- TGI [32]: 20 µM
- CC50 [32]: 79.4 µM
- GI50 [34]: 2 µM
- TGI [34]: 5.01 µM
- CC50 [34]: 20 µM
- GI50 [36]: 2.51 µM
- TGI [36]: 7.94 µM
- CC50 [36]: 31.6 µM

SMILES: CNC(=O)c1cc(Oc2ccc3nc(NC(=O)Nc4ccc(Cl)c(Cl)c4)sc3c2)ccn1
- growth at 100 µM [1]: 9%
- GI50 [2]: 2.15 µM
- TGI [2]: 6.43 µM
- CC50 [2]: > 100 µM
- GI50 [3]: 1.95 µM
- TGI [3]: 4.33 µM
- growth at 100 µM [4]: 50%
- growth at 0.01 µM [5]: 96%
- growth at 0.1 µM [6]: 118%
- growth at 0.1 µM [7]: 107%
- growth at 100 µM [8]: 15%
- GI50 [9]: 5.04 µM
- TGI [9]: > 100 µM
- CC50 [9]: > 100 µM
- GI50 [10]: 2.26 µM
- LC50 [10]: 21.5 µM
- TGI [10]: 5.11 µM
- growth at 1 µM [11]: 79%
- growth at 1 µM [12]: 98%
- growth at 100 µM [13]: -21%
- growth at 0.01 µM [14]: 92%
- IC50 [15]: > 100 µM
- growth at 1 µM [16]: 103%
- growth at 100 µM [17]: 6%
- GI50 [18]: 2.55 µM
- TGI [18]: 6.75 µM
- CC50 [18]: > 100 µM
- growth at 0.01 µM [19]: 115%
- growth at 100 µM [20]: -30%
- GI50 [21]: 4.09 µM
- LC50 (concentration killing 50% of cells) [21]: > 100 µM
- TGI [21]: > 100 µM
- GI50 [22]: 2.46 µM
- TGI [22]: 6.3 µM
- CC50 [22]: > 100 µM
- growth at 0.01 µM [23]: 100%
- growth at 100 µM [24]: -74%
- growth at 0.01 µM [25]: 102%
- growth at 0.01 µM [26]: 92%
- growth at 1 µM [27]: 84%
- growth at 0.1 µM [28]: 101%
- growth at 0.1 µM [29]: 93%
- growth at 1 µM [30]: 108%
- growth at 1 µM [31]: 91%
- growth at 0.01 µM [33]: 98%
- GI50 [34]: 2.25 µM
- CC50 [34]: > 100 µM
- growth at 100 µM [35]: -46%
- GI50 [36]: 1.74 µM
- TGI [36]: 3.56 µM
- CC50 [36]: 7.31 µM
